Measured values from PubChem BioAssay (NCI).
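Five concentrations, 48 hours, 96-well plates. At the TGI there is no net growth.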

Experiments:
Experiment in all cases: DTP human tumour cell line panel, 48 h
SF-295 CNS = system: SF-295 CNS
EKVX NSCLC = system: EKVX NSCLC
HCT-15 colon = system: HCT-15 colon
COLO 205 colon = system: COLO 205 colon
HOP-92 NSCLC = system: HOP-92 NSCLC
U251 CNS = system: U251 CNS
MDA-MB-231 breast = system: MDA-MB-231 breast
OVCAR-4 ovarian = system: OVCAR-4 ovarian
OVCAR-5 ovarian = system: OVCAR-5 ovarian
UACC-257 melanoma = system: UACC-257 melanoma
HT29 colon = system: HT29 colon
A498 renal = system: A498 renal
786-0 renal = system: 786-0 renal
RPMI-8226 leukemia = system: RPMI-8226 leukemia
OVCAR-8 ovarian = system: OVCAR-8 ovarian
NCI-H23 lung = system: NCI-H23 lung
MCF7 breast = system: MCF7 breast
LOX IMVI melanoma = system: LOX IMVI melanoma
HL-60(TB) leukemia = system: HL-60(TB) leukemia
RXF 393 renal = system: RXF 393 renal
PC-3 prostate = system: PC-3 prostate
K-562 leukemia = system: K-562 leukemia
ACHN renal = system: ACHN renal
NCI-H460 lung = system: NCI-H460 lung
TK-10 renal = system: TK-10 renal
SK-MEL-28 melanoma = system: SK-MEL-28 melanoma
SN12C renal = system: SN12C renal
BT-549 breast = system: BT-549 breast
SNB-75 CNS = system: SNB-75 CNS
SK-MEL-5 melanoma = system: SK-MEL-5 melanoma
SK-MEL-2 melanoma = system: SK-MEL-2 melanoma
NCI/ADR-RES ovarian = system: NCI/ADR-RES ovarian
KM12 colon = system: KM12 colon
HOP-62 NSCLC = system: HOP-62 NSCLC
SF-268 CNS = system: SF-268 CNS
HCC-2998 colon = system: HCC-2998 colon
MOLT-4 leukemia = system: MOLT-4 leukemia
MDA-N = system: MDA-N
SR leukemia = system: SR leukemia
NCI-H522 lung = system: NCI-H522 lung
T-47D breast = system: T-47D breast
DU-145 prostate = system: DU-145 prostate
SW-620 colon = system: SW-620 colon
SK-OV-3 ovarian = system: SK-OV-3 ovarian
CAKI-1 renal = system: CAKI-1 renal
M14 melanoma = system: M14 melanoma
A549 NSCLC = system: A549 NSCLC
MALME-3M melanoma = system: MALME-3M melanoma
HS 578T breast = system: HS 578T breast
CCRF-CEM leukemia = system: CCRF-CEM leukemia
OVCAR-3 ovarian = system: OVCAR-3 ovarian
UACC-62 melanoma = system: UACC-62 melanoma
MDA-MB-435 = system: MDA-MB-435
NCI-H226 lung = system: NCI-H226 lung
SNB-19 CNS = system: SNB-19 CNS
UO-31 renal = system: UO-31 renal
HCT-116 colon = system: HCT-116 colon
IGROV1 ovarian = system: IGROV1 ovarian

CCCC1NC(C#N)(C#N)C(CCC)NC1(C#N)C#N (centres undefined)
TGI (SF-295 CNS): > 100 µM
TGI (EKVX NSCLC): > 100 µM
TGI (HCT-15 colon): > 39.2 µM
TGI (COLO 205 colon): 12.7 µM
TGI (HOP-92 NSCLC): > 32.4 µM
TGI (U251 CNS): > 100 µM
TGI (MDA-MB-231 breast): > 89.7 µM
TGI (OVCAR-4 ovarian): > 100 µM
TGI (OVCAR-5 ovarian): > 90.1 µM
TGI (UACC-257 melanoma): > 100 µM
TGI (HT29 colon): > 55.7 µM
TGI (A498 renal): > 96.4 µM
TGI (786-0 renal): > 33.5 µM
TGI (RPMI-8226 leukemia): 0.943 µM
TGI (OVCAR-8 ovarian): 21.6 µM
TGI (NCI-H23 lung): > 51.3 µM
TGI (MCF7 breast): > 100 µM
TGI (LOX IMVI melanoma): 31.4 µM
TGI (HL-60(TB) leukemia): 0.343 µM
TGI (RXF 393 renal): > 66.9 µM
TGI (PC-3 prostate): > 88.7 µM
TGI (K-562 leukemia): > 77.6 µM
TGI (ACHN renal): > 100 µM
TGI (NCI-H460 lung): > 100 µM
TGI (TK-10 renal): > 100 µM
TGI (SK-MEL-28 melanoma): > 100 µM
TGI (SN12C renal): > 37 µM
TGI (BT-549 breast): > 27 µM
TGI (SNB-75 CNS): > 41.1 µM
TGI (SK-MEL-5 melanoma): > 100 µM
TGI (SK-MEL-2 melanoma): > 100 µM
TGI (NCI/ADR-RES ovarian): 15.2 µM
TGI (KM12 colon): > 65.9 µM
TGI (HOP-62 NSCLC): > 100 µM
TGI (SF-268 CNS): > 48.7 µM
TGI (HCC-2998 colon): > 58.2 µM
TGI (MOLT-4 leukemia): 1.99 µM
TGI (MDA-N): > 55 µM
TGI (SR leukemia): 1.49 µM
TGI (NCI-H522 lung): 1.51 µM
TGI (T-47D breast): > 71.5 µM
TGI (DU-145 prostate): > 43.1 µM
TGI (SW-620 colon): > 100 µM
TGI (SK-OV-3 ovarian): > 100 µM
TGI (CAKI-1 renal): > 50.4 µM
TGI (M14 melanoma): > 60.6 µM
TGI (A549 NSCLC): > 100 µM
TGI (MALME-3M melanoma): > 100 µM
TGI (HS 578T breast): 22.6 µM
TGI (CCRF-CEM leukemia): 17.8 µM
TGI (OVCAR-3 ovarian): 29.1 µM
TGI (UACC-62 melanoma): > 100 µM
TGI (MDA-MB-435): 26.8 µM
TGI (NCI-H226 lung): 81.1 µM
TGI (SNB-19 CNS): > 100 µM
TGI (UO-31 renal): > 100 µM
TGI (HCT-116 colon): > 37.1 µM
TGI (IGROV1 ovarian): > 62.2 µM

CC1=NN(c2cccc(Cl)c2)C2(C1)C(Cl)C(=O)N2c1nc2ccccc2s1 (centres undefined)
TGI (SF-295 CNS): 98.1 µM
TGI (EKVX NSCLC): > 100 µM
TGI (HCT-15 colon): > 100 µM
TGI (COLO 205 colon): 31.9 µM
TGI (HOP-92 NSCLC): 75.6 µM
TGI (U251 CNS): 72.5 µM
TGI (MDA-MB-231 breast): 41.2 µM
TGI (OVCAR-4 ovarian): > 100 µM
TGI (OVCAR-5 ovarian): > 100 µM
TGI (UACC-257 melanoma): > 100 µM
TGI (HT29 colon): > 100 µM
TGI (A498 renal): > 100 µM
TGI (786-0 renal): 50.6 µM
TGI (RPMI-8226 leukemia): 41.6 µM
TGI (OVCAR-8 ovarian): > 100 µM
TGI (NCI-H23 lung): 49.5 µM
TGI (MCF7 breast): > 100 µM
TGI (LOX IMVI melanoma): 34.9 µM
TGI (HL-60(TB) leukemia): 53.4 µM
TGI (RXF 393 renal): 59.1 µM
TGI (PC-3 prostate): 63.8 µM
TGI (K-562 leukemia): 48.4 µM
TGI (ACHN renal): > 100 µM
TGI (NCI-H460 lung): > 100 µM
TGI (TK-10 renal): > 100 µM
TGI (SN12C renal): 82.3 µM
TGI (BT-549 breast): 85.9 µM
TGI (SNB-75 CNS): 67.1 µM
TGI (SK-MEL-5 melanoma): 44.4 µM
TGI (SK-MEL-2 melanoma): 38.7 µM
TGI (NCI/ADR-RES ovarian): 69.7 µM
TGI (KM12 colon): > 100 µM
TGI (HOP-62 NSCLC): 64.8 µM
TGI (SF-268 CNS): > 100 µM
TGI (HCC-2998 colon): > 100 µM
TGI (MOLT-4 leukemia): 38.6 µM
TGI (MDA-N): > 100 µM
TGI (SR leukemia): 34.3 µM
TGI (NCI-H522 lung): 56.6 µM
TGI (T-47D breast): 97.4 µM
TGI (DU-145 prostate): > 100 µM
TGI (SW-620 colon): > 100 µM
TGI (SK-OV-3 ovarian): 69.1 µM
TGI (CAKI-1 renal): > 100 µM
TGI (M14 melanoma): 64.1 µM
TGI (A549 NSCLC): 76.2 µM
TGI (MALME-3M melanoma): > 100 µM
TGI (HS 578T breast): > 100 µM
TGI (OVCAR-3 ovarian): 66.5 µM
TGI (UACC-62 melanoma): > 100 µM
TGI (MDA-MB-435): > 100 µM
TGI (NCI-H226 lung): 43.4 µM
TGI (SNB-19 CNS): > 100 µM
TGI (UO-31 renal): 51.1 µM
TGI (HCT-116 colon): 40.4 µM
TGI (IGROV1 ovarian): > 100 µM
